According to US9808003B2, “Herbicidally active 2-(substituted-phenyl)-cyclopentane-1,3-dione compounds and derivatives thereof” (Syngenta Limited, priority 2013, dated 2017):

Legend:
Assay in all cases: Test 1A glasshouse assay, post-emergence herbicidal activity
Format in all cases: in vivo
Lolium perenne (LOLPE) = settings: Lolium perenne, 312 h, application rate 250 g/ha, 13 days after application, visual (100%=total damage; 0%=no damage), read-out: Post-emergence Herbicidal Activity (% Phytotoxicity) LOLPE
Method: (§1) Seeds of a variety of test species were sown in standard soil in pots. After cultivation for one day (pre-emergence) or after 8 days cultivation (post-emergence) under controlled conditions in a glasshouse (at 24/16° C., day/night; 14 hours light; 65% humidity), the plants were sprayed with an aqueous spray solution derived from the formulation of the technical active ingredient in acetone/water (50:50) solution containing 0.5% Tween 20 (polyoxyethelyene sorbitan monolaurate, CAS RN 9005-64-5). The test plants were then grown under controlled conditions in a glasshouse (at 24/16° C., day/night; 14 hours light; 65% humidity) and watered twice daily. 13 days after application of the test herbicide, for pre- and post-emergence, the test was evaluated visually for percentage phytotoxicity to the plant (where 100%=total damage to plant; 0%=no damage to plant).
(§2) Lolium perenne (LOLPE), Alopecurus myosuroides (ALOMY), Echinochloa crus-galli (ECHCG), and Avena fatua (AVEFA); these are all grassy monocotyledonous weeds.

[1] = tested on: Alopecurus myosuroides (ALOMY); settings: Alopecurus myosuroides, 312 h, application rate 250 g/ha, 13 days after application, visual (100%=total damage; 0%=no damage), read-out: Post-emergence Herbicidal Activity (% Phytotoxicity) ALOMY
Method: as §1, §2

Avena fatua (AVEFA) = settings: Avena fatua, 312 h, application rate 250 g/ha, 13 days after application, visual (100%=total damage; 0%=no damage), read-out: Post-emergence Herbicidal Activity (% Phytotoxicity) AVEFA
Method: as §1, §2

[2] = tested on: Echinochloa crus-galli (ECHCG); settings: Echinochloa crus-galli, 312 h, application rate 250 g/ha, 13 days after application, visual (100%=total damage; 0%=no damage), read-out: Post-emergence Herbicidal Activity (% Phytotoxicity) ECHCG
Method: as §1, §2

| Structure (SMILES) | pest or weed control at 250 g/ha (Lolium perenne (LOLPE)) [%] | pest or weed control at 250 g/ha [1] [%] | pest or weed control at 250 g/ha (Avena fatua (AVEFA)) [%] | pest or weed control at 250 g/ha [2] [%] |
| --- | --- | --- | --- | --- |
| Cc1cc(C)c(C2C(=O)CC(CCNC(=O)c3cccc(F)n3)C2=O)c(C)c1 (stereo not drawn) [Compound A89A] | 100 | 100 | 100 | 100 |
| Cc1cc(-n2cc(Cl)cn2)cc(C)c1C1C(=O)CC(CCNC(=O)c2cc(Br)ccn2)C1=O (stereo not drawn) [Compound A154] | 100 | 100 | 100 | 100 |
| Cc1cc(-n2cc(Cl)cn2)cc(C)c1C1C(=O)CC(CCNC(=O)c2ccc(Br)cn2)C1=O (stereo not drawn) [Compound A136] | 100 | 100 | 90 | 100 |
| Cc1cc(C)c(C2C(=O)CC(CCNC(=O)c3ccc(Cl)cn3)C2=O)c(C)c1 (stereo not drawn) [Compound A118] | 100 | 100 | 100 | 100 |
| Cc1cc(-c2ccc(Cl)cc2)cc(C)c1C1C(=O)CC(CCNC(=O)c2ccccn2)C1=O (stereo not drawn) [Compound A104] | 100 | 90 | 90 | 100 |
| Cc1cc(C)c(C2C(=O)CC(CCNC(=O)c3ccc(F)c(Cl)c3)C2=O)c(C)c1 (stereo not drawn) [Compound A14] | 70 | 60 | 70 | 100 |
| COc1ccc(C(=O)NCCC2CC(=O)C(c3c(C)cc(C)cc3C)C2=O)cc1 (stereo not drawn) [Compound A18] | 90 | 60 | 80 | 100 |
| Cc1cc(OCC(F)(F)F)cc(C)c1C1C(=O)CC(CCNC(=O)c2ccccn2)C1=O (stereo not drawn) [Compound A126, N-[2-[3-[2,6-dimethyl-4-(2,2,2-trifluoroethoxy)phenyl]-2,4-dioxo-cyclopentyl]ethyl]pyridine-2-carboxamide] | 100 | 100 | 100 | 100 |
| Cc1cc(C)c(C2C(=O)CC(CCNC(=O)c3cncc(Cl)c3)C2=O)c(C)c1 (stereo not drawn) [Compound A157] | 70 | 70 | 70 | 90 |
| Cc1cc(C)c(C2C(=O)CC(CCNC(=O)c3snc(Cl)c3Cl)C2=O)c(C)c1 (stereo not drawn) [Compound A212] | 70 | 30 | 50 | 70 |
| Cc1cc(C)c(C2C(=O)CC(CCNC(=O)c3ccccc3Cl)C2=O)c(C)c1 (stereo not drawn) [Compound A20] | 100 | 70 | 70 | 100 |
| Cc1cc(C)c(C2C(=O)CC(CCNC(=O)c3nnsc3C)C2=O)c(C)c1 (stereo not drawn) [Compound A164] | 90 | 90 | 100 | 100 |
| Cc1cc(-n2cc(Cl)cn2)cc(C)c1C1C(=O)CC(CCNC(=O)c2ccc(F)cn2)C1=O (stereo not drawn) [Compound A129] | 100 | 100 | 100 | 100 |
| Cc1cc(C)c(C2C(=O)CC(CCNC(=O)c3cc(Cl)cc(Cl)n3)C2=O)c(C)c1 (stereo not drawn) [Compound A146] | 70 | 60 | 40 | 100 |
| Cc1cc(-n2cc(Cl)cn2)cc(C)c1C1C(=O)CC(CCNC(=O)c2nc(Cl)ccc2Cl)C1=O (stereo not drawn) [Compound A131] | 100 | 100 | 100 | 100 |
| Cc1cc(C)c(C2C(=O)CC(CCNC(=O)c3ccc(Cl)nc3)C2=O)c(C)c1 (stereo not drawn) [Compound A22] | 80 | 70 | 80 | 80 |
| Cc1cc(C)c(C2C(=O)CC(CCNC(=O)c3ocnc3C)C2=O)c(C)c1 (stereo not drawn) [Compound A181] | 90 | 80 | 100 | 80 |

| Structure (SMILES) | pest or weed control at 250 g/ha (Lolium perenne (LOLPE)) [%] | pest or weed control at 250 g/ha [1] [%] | pest or weed control at 250 g/ha (Avena fatua (AVEFA)) [%] | pest or weed control at 250 g/ha [2] [%] |
| --- | --- | --- | --- | --- |
| Cc1cc(C)c(C2C(=O)CC(CCNC(=O)c3cc(Br)ccn3)C2=O)c(C)c1 (stereo not drawn) [Compound A121] | 100 | 90 | 90 | 100 |
| Cc1cc(C)c(C2C(=O)CC(CCNC(=O)c3ccc(OC(F)(F)F)cc3)C2=O)c(C)c1 (stereo not drawn) [Compound A15] | 90 | 60 | 90 | 100 |
| Cc1cc(-c2ccc(F)cn2)cc(C)c1C1C(=O)CC(CCNC(=O)c2ccccn2)C1=O (stereo not drawn) [Compound A117] | 100 | 100 | 100 | 100 |
| Cc1cc(C)c(C2C(=O)CC(CCNC(=O)c3oc(C)nc3C)C2=O)c(C)c1 (stereo not drawn) [Compound A178] | 100 | 70 | 90 | 80 |
| Cc1cc(-n2cc(Cl)cn2)cc(C)c1C1C(=O)CC(CCNC(=O)c2nc(Cl)ccc2Br)C1=O (stereo not drawn) [Compound A140] | 100 | 90 | 100 | 100 |
| Cc1cc(C)c(C2C(=O)CC(CCNC(=O)c3ccc(C#N)cn3)C2=O)c(C)c1 (stereo not drawn) [Compound A57] | 100 | 100 | 100 | 100 |
| Cc1cc(-n2cc(C#N)cn2)cc(C)c1C1C(=O)CC(CCNC(=O)c2ccccn2)C1=O (stereo not drawn) [Compound A142, N-[2-[3-[4-(4-cyanopyrazol-1-yl)-2,6-dimethyl-phenyl]-2,4-dioxo-cyclopentyl]ethyl]pyridine-2-carboxamide] | 100 | 100 | 90 | 100 |
| Cc1cc(Cl)cc(C)c1C1C(=O)CC(CCNC(=O)c2ccccn2)C1=O (stereo not drawn) [Compound A124] | 100 | 100 | 100 | 100 |
| Cc1cc(-n2cc(Cl)cn2)cc(C)c1C1C(=O)CC(CCNC(=O)c2cccc(Cl)n2)C1=O (stereo not drawn) [Compound A132] | 100 | 100 | 100 | 100 |
| Cc1cc(C)c(C2C(=O)CC(CCNC(=O)c3cccc(C(F)(F)F)n3)C2=O)c(C)c1 (stereo not drawn) [Compound A94] | 80 | 90 | 100 | 90 |
| Cc1cc(C)c(C2C(=O)CC(CCNC(=O)c3cc4ccccc4n3C)C2=O)c(C)c1 (stereo not drawn) [Compound A52] | 90 | 70 | 70 | 100 |
| Cc1cc(C)c(C2C(=O)CC(CCNC(=O)c3cccc(C)n3)C2=O)c(C)c1 (stereo not drawn) [Compound A64] | 80 | 90 | 80 | 60 |
| Cc1cc(C)c(C2=C(OS(=O)(=O)c3ccc(F)cc3)CC(CCNC(=O)c3ccc(Br)cn3)C2=O)c(C)c1 (stereo not drawn) [Compound P19] | 100 | 100 | 100 | 100 |
| Cc1cc(-c2cc(Cl)cc(Cl)c2)cc(C)c1C1C(=O)CC(CCNC(=O)c2ccccn2)C1=O (stereo not drawn) [Compound A203] | 80 | 80 | 100 | 100 |
| CCC(=O)NCCC1CC(=O)C(c2c(C)cc(C)cc2C)C1=O (stereo not drawn) [Compound A10] | 70 | 60 | 70 | 50 |
| Cc1cc(C)c(C2C(=O)CC(CCNC(=O)c3cccc(-c4ccccc4)n3)C2=O)c(C)c1 (stereo not drawn) [Compound A93] | 70 | 70 | 40 | 50 |
